Legend:
[1] = Test F: in vitro (liver microsome) stability, rat liver microsomes; format: in vitro ADME, Sprague-Dawley rats; conditions: liver microsomes from rats, NADPH, 37° C.
Protocol: (§1) Determination of In Vitro (Liver Microsome) Stability
(§2) Liver microsomes are prepared from Sprague-Dawley rats and human liver samples according to internal SOPs. The compounds are incubated at 37° C. at a total microsome protein concentration of 0.5 mg/mL in a 0.1 mol/L potassium phosphate buffer at pH 7.4, in the presence of the cofactor, NADPH (1.0 mmol/L). The initial concentration of compound is 1.0 μmol/L. Samples are taken for analysis at 5 time points, 0, 7, 15, 20 and 30 minutes after the start of the incubation. The enzymatic activity in the collected sample is immediately stopped by adding an equal volume of acetonitrile containing 0.8% formic acid. The concentration of compound remaining in each of the collected samples is determined by means of LC-MS/MS. The elimination rate constant (k) of the thrombin inhibitor is calculated as the slope of the plot of ln[Thrombin inhibitor] against incubation time (minutes). The elimination rate constant is then used to calculate the half-life (T1/2) of the thrombin inhibitor, which is subsequently used to calculate the intrinsic clearance (CLint) of the thrombin inhibitor in liver microsomes as: […]

[2] = Test F: in vitro (liver microsome) stability, human liver microsomes; format: in vitro ADME; conditions: liver microsomes from humans, NADPH, 37° C.
Protocol: as §1, §2

Compound | conversion to the corresponding active inhibitor (title compound of Example 1) [1] | conversion to the corresponding active inhibitor (title compound of Example 1) [2]
CC(=O)OCc1nc(N)cc(C)c1CNC(=O)CC1=C(C)CCN(NCC(F)(F)c2ccccn2)C1=O [Example 2, (6-Amino-3-{[({1-[(2,2-difluoro-2-pyridin-2-ylethyl)amino]-4-methyl-2-oxo-1,2,5,6-tetrahydropyridin-3-yl}acetyl)amino]methyl}-4-methylpyridin-2-yl)-methyl acetate] | converted to the corresponding active inhibitor | converted to the corresponding active inhibitor
CC1=C(CC(=O)NCc2c(C)cc(N)nc2COC(=O)c2ccccc2)C(=O)N(NCC(F)(F)c2ccccn2)CC1 [Example 3, (6-Amino-3-{[({1-[(2,2-difluoro-2-pyridin-2-ylethyl)amino]-4-methyl-2-oxo-1,2,5,6-tetrahydropyridin-3-yl}acetyl)amino]methyl}-4-methylpyridin-2-yl)-methyl benzoate] | converted to the corresponding active inhibitor | converted to the corresponding active inhibitor

— patent US20080207695A1, “Thrombin Inhibiting 2-Oxo-1,2,5,6-Tetrahydropyridine Derivatives” (ASTRAZENECA AB, priority 2005, published 2008)
